Experimental data taken from US9637453B2, “3-spirocyclic-6-hydroxamic acid tetralins as HDAC inhibitors” (Forma Therapeutics, Inc., priority 2015, dated 2017).

Assays:
[1] = molecular target: T1, Full length human recombinant HDAC11 (Homo sapiens, UniProt Q96DB2); experiment: In vitro histone deacetylase assay, enzymatic HDAC11 (electrophoretic mobility shift assay); type: biochemical; settings: 10 nM HDAC11; 2 μM peptide substrate FAM-RHKK(tri-fluor-Ac)—NH2; 25° C.; 12 concentrations; read-out: HDAC11 Activity Range (IC50)
T1 construct: Full length human recombinant HDAC6 and HDAC11 proteins were expressed in baculoviral system
T1 sequence (Q96DB2 1-347): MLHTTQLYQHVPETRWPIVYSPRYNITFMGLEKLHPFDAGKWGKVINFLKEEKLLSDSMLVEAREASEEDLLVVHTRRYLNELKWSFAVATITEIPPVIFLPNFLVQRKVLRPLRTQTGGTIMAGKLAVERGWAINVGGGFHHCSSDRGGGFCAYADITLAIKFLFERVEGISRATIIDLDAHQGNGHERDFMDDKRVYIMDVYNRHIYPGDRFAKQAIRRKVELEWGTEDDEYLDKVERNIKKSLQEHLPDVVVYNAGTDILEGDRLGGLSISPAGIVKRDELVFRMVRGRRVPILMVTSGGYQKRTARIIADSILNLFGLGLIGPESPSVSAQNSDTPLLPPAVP
Method in brief: (§1)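 Baculovirus-expressed full-length enzymes (HDAC6 1 nM, FAM-RHKK(Ac)-NH2; HDAC11 10 nM, FAM-RHKK(tri-fluor-Ac)-NH2), 2 μM substrate, HEPES pH 7.5, 25°C, 12-point 3× dilutions. Product/substrate separated by microfluidic mobility shift after SDS quench; IC50 from 4-parameter fit, reported as +/++/+++ bins.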

[2] = molecular target: T2, Full length human recombinant HDAC6 (Homo sapiens, UniProt Q9UBN7); experiment: In vitro histone deacetylase assay, enzymatic HDAC6 (electrophoretic mobility shift assay); type: biochemical; settings: 1 nM HDAC6; 2 μM peptide substrate FAM-RHKK(Ac)—NH2; 25° C.; 12 concentrations; read-out: HDAC6 Activity Range (IC50)
T2 construct: Full length human recombinant HDAC6 and HDAC11 proteins were expressed in baculoviral system
T2 sequence (Q9UBN7 1-1215): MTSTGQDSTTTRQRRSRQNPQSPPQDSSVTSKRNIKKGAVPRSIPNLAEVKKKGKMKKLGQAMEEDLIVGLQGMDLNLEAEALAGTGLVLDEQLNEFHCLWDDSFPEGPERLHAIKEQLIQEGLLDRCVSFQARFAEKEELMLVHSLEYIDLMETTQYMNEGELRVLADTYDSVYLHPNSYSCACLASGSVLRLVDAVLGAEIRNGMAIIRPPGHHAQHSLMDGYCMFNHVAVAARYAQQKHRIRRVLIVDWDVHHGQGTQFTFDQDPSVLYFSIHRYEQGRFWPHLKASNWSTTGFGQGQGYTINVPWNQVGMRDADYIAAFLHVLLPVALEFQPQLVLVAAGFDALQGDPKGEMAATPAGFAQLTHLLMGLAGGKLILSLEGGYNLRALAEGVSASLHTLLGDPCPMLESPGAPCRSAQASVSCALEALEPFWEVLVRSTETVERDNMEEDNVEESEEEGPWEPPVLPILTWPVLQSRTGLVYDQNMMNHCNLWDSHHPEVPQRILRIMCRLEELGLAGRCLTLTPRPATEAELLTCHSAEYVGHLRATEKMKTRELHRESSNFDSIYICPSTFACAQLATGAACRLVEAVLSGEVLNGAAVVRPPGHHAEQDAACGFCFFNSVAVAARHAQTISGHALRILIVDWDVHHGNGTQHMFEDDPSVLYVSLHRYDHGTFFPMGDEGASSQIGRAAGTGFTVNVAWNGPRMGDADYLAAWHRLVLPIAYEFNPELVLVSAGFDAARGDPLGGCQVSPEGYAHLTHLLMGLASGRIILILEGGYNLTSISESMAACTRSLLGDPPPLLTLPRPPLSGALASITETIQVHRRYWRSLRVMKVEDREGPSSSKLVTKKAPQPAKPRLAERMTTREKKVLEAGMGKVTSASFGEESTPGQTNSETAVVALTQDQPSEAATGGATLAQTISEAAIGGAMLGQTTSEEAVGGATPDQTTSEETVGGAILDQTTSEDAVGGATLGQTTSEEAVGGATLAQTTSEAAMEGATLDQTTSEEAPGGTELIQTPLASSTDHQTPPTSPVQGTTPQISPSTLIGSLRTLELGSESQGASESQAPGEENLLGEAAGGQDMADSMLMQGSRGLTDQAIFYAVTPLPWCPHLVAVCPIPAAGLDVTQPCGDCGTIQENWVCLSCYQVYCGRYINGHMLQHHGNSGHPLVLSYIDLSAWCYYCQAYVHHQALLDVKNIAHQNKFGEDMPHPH
Method in brief: as §1

Row | Structure (SMILES) | IC50 [1] [nM] | IC50 [2] [nM]
1 | O=C(NO)c1ccc2c(c1)C[C@]1(CC2)CCN(Cc2ccc3nonc3c2)C1=O [Compound I-91, (R)-1′-(benzo[c][1,2,5]oxadiazol-5-ylmethyl)-N-hydroxy-2′-oxo-3,4-dihydro-1H-spiro[naphthalene-2,3′-pyrrolidine]-7-carboxamide] | ≤ 100 | ≤ 100
2 | O=C(NO)c1ccc2c(c1)CC1(CC2)CCN(C(=O)Nc2ccccc2)C1 (stereo not drawn) [Compound I-6, N7-hydroxy-N1′-phenyl-3,4-dihydro-1H-spiro[naphthalene-2,3′-pyrrolidine]-1′,7-dicarboxamide] | 100 to 500 | ≤ 100
3 | COCCCN1C[C@@]2(CCc3ccc(C(=O)NO)cc3C2)CC1=O [Compound I-135, (R)—N-hydroxy-1′-(3-methoxypropyl)-5′-oxo-3,4-dihydro-1H-spiro[naphthalene-2,3′-pyrrolidine]-7-carboxamide] | > 500 | ≤ 100
4 | O=C(NO)c1ccc2c(c1)C[C@]1(CC2)CC(=O)N(CC2CCC2)C1 [Compound I-133, (R)-1′-(cyclobutylmethyl)-N-hydroxy-5′-oxo-3,4-dihydro-1H-spiro[naphthalene-2,3′-pyrrolidine]-7-carboxamide] | > 500 | ≤ 100
5 | CS(=O)(=O)N1CCC2(CCc3ccc(C(=O)NO)cc3C2)C1 (stereo not drawn) [Compound I-13, N-hydroxy-1′-(methylsulfonyl)-3,4-dihydro-1H-spiro[naphthalene-2,3′-pyrrolidine]-7-carboxamide] | > 500 | ≤ 100
6 | Cc1ccc(CN2CC[C@]3(CCc4ccc(C(=O)NO)cc4C3)C2=O)cc1 [Compound I-123, (R)—N-hydroxy-1′-(4-methylbenzyl)-2′-oxo-3,4-dihydro-1H-spiro[naphthalene-2,3′-pyrrolidine]-7-carboxamide] | > 500 | ≤ 100
7 | O=C(NO)c1ccc2c(c1)C[C@@]1(CC2)CCN(c2cccnc2)C1=O [Compound I-28, (S)—N-hydroxy-2′-oxo-1′-(pyridin-3-yl)-3,4-dihydro-1H-spiro[naphthalene-2,3′-pyrrolidine]-7-carboxamide] | 100 to 500 | ≤ 100
8 | CC(C)N1C[C@]2(CCc3ccc(C(=O)NO)cc3C2)CC1=O [Compound I-140, (S)—N-hydroxy-1′-isopropyl-5′-oxo-3,4-dihydro-1H-spiro[naphthalene-2,3′-pyrrolidine]-7-carboxamide] | > 500 | ≤ 100
9 | O=C(NO)c1ccc2c(c1)C[C@]1(CC2)CCN(c2cccnc2)C1=O [Compound I-29, (R)—N-hydroxy-2′-oxo-1′-(pyridin-3-yl)-3,4-dihydro-1H-spiro[naphthalene-2,3′-pyrrolidine]-7-carboxamide] | > 500 | ≤ 100
10 | O=C(NO)c1ccc2c(c1)C[C@]1(CC2)CCN(Cc2cccnc2)C1=O [Compound I-97, (R)—N-hydroxy-2′-oxo-1′-(pyridin-3-ylmethyl)-3,4-dihydro-1H-spiro[naphthalene-2,3′-pyrrolidine]-7-carboxamide] | > 500 | ≤ 100
11 | O=C(NO)c1ccc2c(c1)C[C@]1(CC2)CCN(Cc2ccccc2F)C1=O [Compound I-103, (R)-1′-(2-fluorobenzyl)-N-hydroxy-2′-oxo-3,4-dihydro-1H-spiro[naphthalene-2,3′-pyrrolidine]-7-carboxamide] | ≤ 100 | ≤ 100
12 | O=C(NO)c1ccc2c(c1)C[C@@]1(CC2)CCN(c2ccc(Cl)c(Cl)c2)C1=O [Compound I-112, (S)-1′-(3,4-dichlorophenyl)-N-hydroxy-2′-oxo-3,4-dihydro-1H-spiro[naphthalene-2,3′-pyrrolidine]-7-carboxamide] | > 500 | ≤ 100
13 | O=C(NO)c1ccc2c(c1)C[C@@]1(CC2)CC(=O)N(c2ccccc2)C1 [Compound I-132, (S)—N-hydroxy-5′-oxo-1′-phenyl-3,4-dihydro-1H-spiro[naphthalene-2,3′-pyrrolidine]-7-carboxamide] | > 500 | ≤ 100
14 | O=C(NO)c1ccc2c(c1)C[C@@]1(CC2)CC(=O)N(C2CC2)C1 [Compound I-141, (S)-1′-cyclopropyl-N-hydroxy-5′-oxo-3,4-dihydro-1H-spiro[naphthalene-2,3′-pyrrolidine]-7-carboxamide] | > 500 | ≤ 100
15 | O=C(NO)c1ccc2c(c1)C[C@@]1(CC2)CCN(CC2CCOCC2)C1=O [Compound I-57, (S)—N-hydroxy-2′-oxo-1′-((tetrahydro-2H-pyran-4-yl)methyl)-3,4-dihydro-1H-spiro[naphthalene-2,3′-pyrrolidine]-7-carboxamide] | > 500 | ≤ 100
16 | O=CN1CCC2(CCc3ccc(C(=O)NO)cc3C2)C1 (stereo not drawn) [Compound I-10, 1′-formyl-N-hydroxy-3,4-dihydro-1H-spiro[naphthalene-2,3′-pyrrolidine]-7-carboxamide] | > 500 | ≤ 100

More lines, now with the values ahead:

Row | IC50 [1] [nM] | IC50 [2] [nM] | Structure (SMILES)
17 | > 500 | ≤ 100 | COc1ccc(CN2CC[C@@]3(CCc4ccc(C(=O)NO)cc4C3)C2=O)cc1 [Compound I-75, (S)—N-hydroxy-1′-(4-methoxybenzyl)-2′-oxo-3,4-dihydro-1H-spiro[naphthalene-2,3′-pyrrolidine]-7-carboxamide]
18 | > 500 | ≤ 100 | O=C(NO)c1ccc2c(c1)CC1(CC2)CCN(S(=O)(=O)C2CCCCC2)C1 (stereo not drawn) [Compound I-7, 1′-(cyclohexylsulfonyl)-N-hydroxy-3,4-dihydro-1H-spiro[naphthalene-2,3′-pyrrolidine]-7-carboxamide]
19 | > 500 | ≤ 100 | O=C(NO)c1ccc2c(c1)C[C@@]1(CC2)CCN(CC2CCC2)C1=O [Compound I-53, (S)-1′-(cyclobutylmethyl)-N-hydroxy-2′-oxo-3,4-dihydro-1H-spiro[naphthalene-2,3′-pyrrolidine]-7-carboxamide]
20 | ≤ 100 | ≤ 100 | O=C(NO)c1ccc2c(c1)C[C@]1(CC2)CCN(Cc2cc(Cl)ccc2Cl)C1=O [Compound I-94, (R)-1′-(2,5-dichlorobenzyl)-N-hydroxy-2′-oxo-3,4-dihydro-1H-spiro[naphthalene-2,3′-pyrrolidine]-7-carboxamide]
21 | > 500 | ≤ 100 | COc1ccccc1CN1CC[C@@]2(CCc3ccc(C(=O)NO)cc3C2)C1=O [Compound I-65, (S)—N-hydroxy-1′-(2-methoxybenzyl)-2′-oxo-3,4-dihydro-1H-spiro[naphthalene-2,3′-pyrrolidine]-7-carboxamide]
22 | > 500 | ≤ 100 | O=C(NO)c1ccc2c(c1)C[C@]1(CC2)CC(=O)N(C2CC2)C1 [Compound I-148, (R)-1′-cyclopropyl-N-hydroxy-5′-oxo-3,4-dihydro-H-spiro[naphthalene-2,3′-pyrrolidine]-7-carboxamide]
23 | > 500 | ≤ 100 | O=C(NO)c1ccc2c(c1)C[C@]1(CC2)CCN(CCCO)C1=O [Compound I-80, (R)—N-hydroxy-1′-(3-hydroxypropyl)-2′-oxo-3,4-dihydro-1H-spiro[naphthalene-2,3′-pyrrolidine]-7-carboxamide]
24 | 100 to 500 | ≤ 100 | O=C(NO)c1ccc2c(c1)C[C@@]1(CC2)CCN(Cc2ccc3ccccc3c2)C1=O [Compound I-77, (S)—N-hydroxy-1′-(naphthalen-2-ylmethyl)-2′-oxo-3,4-dihydro-1H-spiro[naphthalene-2,3′-pyrrolidine]-7-carboxamide]
